Data from patent US20230085549A1 (Janssen Pharmaceutica NV, priority 2021, published 2023).
Where two headings read alike, the source gives them in different places.

Legend:
bacteria = experiment: In vitro Ames bacterial reverse mutation test; format: cell-based
mouse lymphoma = experiment: Mouse lymphoma assay; format: cell-based
[1] = Solubility in solvents and water; format: physicochemical
[2] = Drug interaction studies with oral paliperidone; format: in vivo, human
From the text: Higher doses of paroxetine have not been studied.
This interaction has not been studied with INVEGA HAFYERA.

α1 adrenergic receptor = experiment: In vitro receptor binding affinity; details: antagonist
β2-adrenergic receptor = β2-adrenergic receptor (Homo sapiens, UniProt P07550); experiment: In vitro receptor binding affinity
clinical = details: human, in vivo, po, 4 mg
[3] = Pharmacokinetics in specific populations (oral paliperidone studies, population PK modelling); format: in vivo, human; details: elderly subjects
From the text: No specific pharmacokinetic studies have been performed with […] in specific populations. All the information is obtained from studies with oral paliperidone or is based on the population pharmacokinetic modelling of oral paliperidone and […].

rats = experiment: Oral paliperidone study of fertility in rats; format: in vivo
Method: These parameters were not affected at an oral dose of 0.63 mg/kg, which is half of the oral MRHD of 12 mg based on mg/m^2 body surface area.
(§1) Serum testosterone and sperm parameters partially recovered, but remained decreased after the last observation (two months after treatment was discontinued).

[4] = target: central dopamine D2 receptor (Homo sapiens, UniProt P14416); experiment: In vitro receptor binding affinity; details: antagonist
α2 adrenergic receptor = experiment: In vitro receptor binding affinity; details: antagonist
[5] = target: central Dopamine type 2 (D2) receptor (Homo sapiens, UniProt P14416); details: at paliperidone plasma concentration 7.5 ng/mL; cited from earlier work
[6] = human, in vivo, po
From the text: Observed signs and symptoms included extrapyramidal symptoms and gait unsteadiness.

juvenile rats = experiment: Juvenile rat study with oral paliperidone; format: in vivo
β1-adrenergic receptor = β1-adrenergic receptor (Homo sapiens, UniProt P08588); experiment: In vitro receptor binding affinity
[7] = tested on: cytochrome P450 isozymes, including CYP1A2, CYP2A6, CYP2C8/9/10, CYP2D6, CYP2E1, CYP3A4, and CYP3A5; experiment: Inhibition of drug metabolism in human liver microsomes; format: in vitro ADME
serotonin 5HT2A receptor = serotonin 5HT2A receptor (Homo sapiens, UniProt P28223); experiment: biochemical
[8] = Study with oral immediate-release 14C-paliperidone (excretion, metabolism); format: in vivo
[9] = tested on: CYP1A2, CYP2A6, CYP2C9, and CYP2C19; experiment: CYP substrate studies in vitro; format: in vitro ADME, human
[10] = tested on: pregnant rats and rabbits; experiment: Animal reproduction studies, oral paliperidone during organogenesis; format: in vivo; details: period of organogenesis, mg/m^2
P-glycoprotein (P-gp) = P-glycoprotein (P-gp) (Homo sapiens, UniProt P08183); experiment: P-gp substrate and inhibition studies in vitro; format: in vitro ADME
rat bone marrow = experiment: In vivo rat bone marrow micronucleus test
[11] = tested on: cholinergic muscarinic receptors; experiment: In vitro receptor binding affinity
Plasma protein binding = format: in vitro ADME; details: racemic
[12] = tested on: pregnant mice, rats and rabbits; experiment: Reproduction toxicity studies with orally administered risperidone; format: in vivo
From the text: Increased neuronal cell death occurred in the fetal brains of the offspring of pregnant rats treated at 0.5 to 1.2 times the MRHD; the postnatal development and growth of the offspring was delayed.

Beagle dogs = experiment: Subchronic study in Beagle dogs with risperidone; format: in vivo; details: all doses tested ([…]-5.0 mg/kg)
From the text: as §1

Juvenile dogs = experiment: Juvenile dog study with oral risperidone, 40 weeks

Chain of P-glycoprotein (P-gp) (P08183 whole entry): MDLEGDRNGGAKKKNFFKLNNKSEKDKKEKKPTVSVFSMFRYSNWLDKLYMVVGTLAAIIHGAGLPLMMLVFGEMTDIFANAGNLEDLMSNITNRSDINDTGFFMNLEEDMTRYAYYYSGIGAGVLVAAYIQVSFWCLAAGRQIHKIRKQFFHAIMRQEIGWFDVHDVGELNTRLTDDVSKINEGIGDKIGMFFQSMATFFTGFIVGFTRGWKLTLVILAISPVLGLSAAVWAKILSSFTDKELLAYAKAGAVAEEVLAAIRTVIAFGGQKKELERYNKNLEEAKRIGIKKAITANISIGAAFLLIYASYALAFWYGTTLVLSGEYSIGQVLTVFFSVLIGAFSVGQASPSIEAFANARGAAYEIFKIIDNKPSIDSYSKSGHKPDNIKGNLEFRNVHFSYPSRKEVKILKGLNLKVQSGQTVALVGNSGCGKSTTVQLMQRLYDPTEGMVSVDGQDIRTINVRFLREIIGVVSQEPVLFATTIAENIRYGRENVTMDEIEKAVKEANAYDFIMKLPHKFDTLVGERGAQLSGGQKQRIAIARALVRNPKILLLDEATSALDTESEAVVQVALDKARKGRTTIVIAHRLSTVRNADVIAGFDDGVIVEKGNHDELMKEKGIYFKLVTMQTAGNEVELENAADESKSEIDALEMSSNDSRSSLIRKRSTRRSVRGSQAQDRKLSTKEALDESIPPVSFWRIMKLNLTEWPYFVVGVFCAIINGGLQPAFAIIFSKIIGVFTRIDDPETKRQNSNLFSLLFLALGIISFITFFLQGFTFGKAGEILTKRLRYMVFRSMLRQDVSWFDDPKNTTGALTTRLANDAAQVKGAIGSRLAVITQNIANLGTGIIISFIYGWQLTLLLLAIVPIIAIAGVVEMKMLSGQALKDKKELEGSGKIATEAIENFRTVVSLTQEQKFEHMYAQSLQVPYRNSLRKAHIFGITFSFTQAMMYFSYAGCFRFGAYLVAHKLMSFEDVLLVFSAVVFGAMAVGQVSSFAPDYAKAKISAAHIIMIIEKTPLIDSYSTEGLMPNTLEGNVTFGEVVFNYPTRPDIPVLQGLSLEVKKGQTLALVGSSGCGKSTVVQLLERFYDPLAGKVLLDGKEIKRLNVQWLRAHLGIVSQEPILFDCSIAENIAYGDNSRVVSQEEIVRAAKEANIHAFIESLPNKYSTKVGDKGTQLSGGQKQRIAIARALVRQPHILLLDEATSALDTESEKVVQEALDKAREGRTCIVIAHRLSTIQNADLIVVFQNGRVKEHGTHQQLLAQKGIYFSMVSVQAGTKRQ
Chain of central dopamine D2 receptor (P14416 whole entry): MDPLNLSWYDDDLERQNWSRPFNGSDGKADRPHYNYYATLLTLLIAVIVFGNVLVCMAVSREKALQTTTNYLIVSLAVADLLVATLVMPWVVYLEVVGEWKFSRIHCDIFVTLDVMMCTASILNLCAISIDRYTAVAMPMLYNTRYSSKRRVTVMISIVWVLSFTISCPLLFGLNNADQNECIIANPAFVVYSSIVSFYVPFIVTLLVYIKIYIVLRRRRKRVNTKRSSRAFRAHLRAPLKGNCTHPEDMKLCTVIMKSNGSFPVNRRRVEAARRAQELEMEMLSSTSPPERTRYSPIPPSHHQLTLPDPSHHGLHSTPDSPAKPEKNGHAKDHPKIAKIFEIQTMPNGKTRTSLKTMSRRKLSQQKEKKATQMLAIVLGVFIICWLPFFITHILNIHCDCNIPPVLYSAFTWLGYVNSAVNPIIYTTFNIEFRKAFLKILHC
Chain of central Dopamine type 2 (D2) receptor (P14416 whole entry): as above
Chain of β1-adrenergic receptor (P08588 whole entry): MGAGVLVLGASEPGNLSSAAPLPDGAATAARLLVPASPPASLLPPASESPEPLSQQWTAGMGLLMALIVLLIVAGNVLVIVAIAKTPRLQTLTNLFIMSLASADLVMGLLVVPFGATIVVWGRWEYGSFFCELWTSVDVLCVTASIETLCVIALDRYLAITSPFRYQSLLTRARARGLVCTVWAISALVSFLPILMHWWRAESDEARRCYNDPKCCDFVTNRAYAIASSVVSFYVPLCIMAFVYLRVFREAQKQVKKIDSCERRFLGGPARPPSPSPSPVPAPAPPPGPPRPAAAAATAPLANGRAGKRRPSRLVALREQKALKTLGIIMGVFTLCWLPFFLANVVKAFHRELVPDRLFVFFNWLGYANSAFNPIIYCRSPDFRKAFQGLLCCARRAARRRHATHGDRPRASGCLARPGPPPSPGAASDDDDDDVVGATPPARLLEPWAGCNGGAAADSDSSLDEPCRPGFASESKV
Chain of serotonin 5HT2A receptor (P28223 whole entry): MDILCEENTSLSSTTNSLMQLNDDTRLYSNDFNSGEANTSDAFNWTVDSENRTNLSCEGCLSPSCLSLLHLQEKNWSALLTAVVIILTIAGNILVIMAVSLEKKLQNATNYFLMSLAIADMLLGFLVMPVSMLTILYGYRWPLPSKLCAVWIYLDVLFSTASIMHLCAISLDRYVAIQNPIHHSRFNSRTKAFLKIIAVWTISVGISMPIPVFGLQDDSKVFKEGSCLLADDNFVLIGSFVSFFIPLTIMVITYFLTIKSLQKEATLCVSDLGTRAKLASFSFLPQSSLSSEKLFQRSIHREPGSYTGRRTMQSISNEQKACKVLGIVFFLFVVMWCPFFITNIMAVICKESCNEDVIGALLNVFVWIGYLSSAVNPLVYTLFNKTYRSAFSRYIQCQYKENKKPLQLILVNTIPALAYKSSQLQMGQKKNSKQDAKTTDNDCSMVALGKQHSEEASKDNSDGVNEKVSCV
Chain of β2-adrenergic receptor (P07550 whole entry): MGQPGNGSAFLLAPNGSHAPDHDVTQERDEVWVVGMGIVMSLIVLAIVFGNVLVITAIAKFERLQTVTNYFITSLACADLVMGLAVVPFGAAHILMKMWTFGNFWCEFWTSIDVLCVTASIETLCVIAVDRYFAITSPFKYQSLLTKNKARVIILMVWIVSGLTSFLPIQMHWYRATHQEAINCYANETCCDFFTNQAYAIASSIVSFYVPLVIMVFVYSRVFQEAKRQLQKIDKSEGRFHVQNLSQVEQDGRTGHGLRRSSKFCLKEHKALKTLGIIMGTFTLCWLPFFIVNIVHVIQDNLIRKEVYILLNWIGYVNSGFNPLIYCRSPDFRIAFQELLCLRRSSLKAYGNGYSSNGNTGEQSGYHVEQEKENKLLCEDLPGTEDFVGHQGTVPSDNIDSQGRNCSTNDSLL

SMILES: CCCCCCCCCCCCCCCC(=O)OC1CCCn2c1nc(C)c(CCN1CCC(c3noc4cc(F)ccc34)CC1)c2=O (racemic) [paliperidone palmitate, (±)-3-[2-[4-(6-fluoro-1,2-benzisoxazol-3-yl)-1-piperidinyl]ethyl]-6,7,8,9-tetrahydro-2-methyl-4-oxo-4H-pyrido[1,2-c]pyrimidin-9-yl hexadecanoate]
- genotoxicity (bacteria): no genotoxicity
- genotoxicity (mouse lymphoma): no genotoxicity
- solubility in ethanol and methanol [1]: very slightly soluble
- solubility in ethyl acetate [1]: slightly soluble
- solubility in polyethylene glycol 400 and propylene glycol [1]: practically insoluble
- water solubility [1]: extreme low water solubility

SMILES: Cc1nc2n(c(=O)c1CCN1CCC(c3noc4cc(F)ccc34)CC1)CCCC2O (stereo not drawn) [paliperidone]
- increase in Cmax and AUC of paliperidone ([2]; single 12 mg extended-release tablet with divalproex sodium ER two 500 mg tablets once daily): approximately 50%
- increase in renal clearance of paliperidone ([2]; with carbamazepine): 35%
- change in mean Cmax and AUC at steady-state ([2]; with paroxetine 20 mg/day oral): increase in mean Cmax and AUC values
- Ki (α1 adrenergic receptor): 4 nM
- affinity (β2-adrenergic receptor): no appreciable affinity
- Cmax (clinical): 35 ng/mL
- increase of Cmax and AUC compared to young subjects [3]: 1.2 fold
- genotoxicity (bacteria): not genotoxic
- oral doses at which percentage of treated female rats that became pregnant was not affected (rats; 2 times the oral MRHD of 12 mg): up to 2.5 mg/kg/day
- dose with increased pre- and post-implantation loss and slightly decreased live embryos (rats; female, rat, in vivo, po): 2.5 mg/kg
- oral dose at which these parameters were not affected (rats; half of the oral MRHD of 12 mg): 0.63 mg/kg
- oral doses at which fertility of male rats was not affected (rats; mg/m^2): up to 2 times the oral MRHD of 12 mg/day
- Ki [4]: 1.6 to 2.8 nM
- Ki (α2 adrenergic receptor): 17 nM
- genotoxicity (mouse lymphoma): not genotoxic
- central D2 receptor occupancy [5]: 60%
- highest estimated ingestion in overdose [6]: 405 mg
- no-effect dose for reversible impairment of learning and memory (juvenile rats; females only, oral, days 24 to 73 of age): 0.63 mg/kg/day
- doses without other consistent effects on neurobehavioral or reproductive development (juvenile rats; highest dose tested): ≤ 2.5 mg/kg/day
- affinity (β1-adrenergic receptor): no appreciable affinity
- inhibition of metabolism of drugs metabolized by cytochrome P450 isozymes [7]: does not substantially inhibit
- Ki (serotonin 5HT2A receptor): 0.8 to 1.2 nM
- dose excreted unchanged into urine ([8]; one week after single oral dose of 1 mg): 59%
- administered radioactivity recovered in the feces ([8]; single oral dose of 1 mg): 11%
- administered radioactivity recovered in urine ([8]; single oral dose of 1 mg): Approximately 80%
- substrate of CYP isozymes [9]: not a substrate for CYP1A2
- substrate of CYP isozymes ([9]; listed as Paliperidone): not a substrate
- exposure without increases in fetal abnormalities [10]: up to 8 times the oral MRHD of 12 mg
- P-gp inhibition (P-glycoprotein (P-gp); at high concentrations): weak inhibitor
- P-gp substrate (P-glycoprotein (P-gp); in vitro): substrate of P-glycoprotein (P-gp)
- genotoxicity (rat bone marrow): not genotoxic
- affinity [11]: no appreciable affinity
- fraction unbound (Plasma protein binding): 0.26

SMILES: Cc1nc2n(c(=O)c1CCN1CCC(c3noc4cc(F)ccc34)CC1)CCCC2 [risperidone]
- maternal toxicity ([12]; pregnant mice): 4 times the MRHD
- learning impaired in adult offspring ([12]; pregnant rats): 0.6 times the MRHD
- oral doses at which pup deaths occurred ([12]; rat reproduction studies, mg/m^2): less than the MRHD
- doses with no evidence of teratogenicity ([12]; rats and rabbits, embryo-fetal developmental toxicity): up to 6 times the MRHD of 16 mg/day
- effect on serum testosterone and sperm (Beagle dogs): decreases in serum testosterone and in sperm motility and concentration
- no-effect dose for decreased bone length and density (Juvenile dogs): 0.31 mg/kg/day
